Data taken from US10344001B2, “Azolylacryloyl derivatives as therapeutic agents for sickle cell disease” (VIRGINIA COMMONWEALTH UNIVERSITY, priority 2015, dated 2019).

Legend:
[1] = Reactivity toward free L-cysteine (UPLC-MS of compound and adduct); conditions: incubated with L-Cys for 3 hours; for Ratio of Cpd/Adduct (Adduct peak): share of L-cysteine adduct peak; for Ratio of Cpd/Adduct (Compound peak): share of unreacted compound peak; for Reactivity with L-Cys (adduct share): values in text
Excerpt: The above synthesized KAUS compounds were expected to covalently bind to Hb through a Michael addition reaction with the βCys93 at the surface of the protein to effect their allosteric and antisickling activities. We therefore investigated L-Cys conjugates with KAUS-28, KAUS-29, KAUS-33, KAUS-38 and KAUS-39 with ECA as a positive control using UPLC-MS analysis as previously described^20 with an Acquity H-Class UPLC which is connected to a PDA detector and an Acquity TQD detector. The column used was an Acquity UPLC BEH C18 1.7 μm, 2.1×50 mm, with a Vanguard pre-column attached. Solvent A consisted of water with 0.02% formic acid, while solvent B consisted of 90:10 acetonitrile:water with 0.02% formic acid. A gradient run was performed such that solvent B was increased from 0% B to 100% B from time 0-5 mins, followed by 3 minute wash at 100% B and then a return and re-equilibration at 100% A in the next 4 mins. The flow rate was maintained at 0.5 ml/min throughout the run. 2 μL of sample was injected per run. […] The eluent was then introduced into the TQD detector. The TQD detector was set at positive ionization mode with a capillary voltage of 3.20 kV, cone voltage of 20 V, extractor voltage of 1 V, and RF lens voltage of 0.1 V. The source temperature was set at 150° C., while the desolvation temperature was set at 350° C. and the desolvation and cone gas flows were set at 650 and 50 L/hr respectively. Scans were made from 100-700 m/z with scan duration of 0.5 seconds to obtain mass spectra at different time points.

Hb in normal whole blood = molecular target: T1, Hb in normal whole blood (Homo sapiens, UniProt P68871+P69905); assay: Oxygen equilibrium curve (OEC) study in normal whole blood, multipoint tonometry; format: cell-based; conditions: hematocrit 20%, 1.5 h at 37° C.
T1 construct: Normal whole blood was collected from adult donors at the Virginia Commonwealth University; endogenous in cells; host or cells: erythrocytes in normal adult human whole blood (hematocrit 20%)
Excerpt: (§1) De-identified, leftover EDTA venous blood samples from patients with SCD who visited The Children's Hospital of Philadelphia for routine clinic visits, were obtained after informed consent and used for antisickling study. Normal whole blood was collected from adult donors at the Virginia Commonwealth University after informed consent and used for oxygen equilibrium curve study. Hb was purified from discarded normal blood samples following published procedure and used for OEC study^34. The use of these human samples is in accordance with regulations of the IRB for Protection of Human Subjects.
The ability of the KAUS compounds to left-shift the OEC (stabilize the R-state and/or destabilize the T-state) and increase the oxygen affinity of Hb in normal whole blood or free human hemoglobin was determined by multipoint tonometry as previously reported^20. First, cell free normal human hemoglobin (1 mM) or normal whole blood (hematocrit of 20%) was incubated with 1 mM or 2 mM final test compound (KAUS-28, KAUS-29, KAUS-33, KAUS-38 or KAUS-39) for 1.5 h at 37° C. Following incubation, the mixture was equilibrated in a tonometer with oxygen tensions of 6, 20 and 60 mmHg for 10 min each, and pO2 (mmHg) and sO2 (%) values were measured thereafter using ABL 700 series automated blood gas analyzer (Radiometer America, Inc., Westlake, Ohio). The measured values of pO2 and sO2 at each oxygen tension level were then subjected to a non-linear regression analysis using the program Scientist (Micromath, Salt Lake City, Utah) to calculate P50 and the Hill coefficient (N) values. Time-dependent OEC studies (1 hr, 4 hr, 8 hr and 12 hr) were also performed for KAUS-28, KAUS-33, KAUS-38, and KAUS-39 at final compound concentration of 2 mM. ECA and the previously studied azolylacryloyl-carboxylate derivative, KAUS-15 were used as positive controls. Compounds were dissolved in DMSO to make 100-250 mM stock solutions, and DMSO was used in all control samples. All OEC studies were performed in duplicates.

[2] = system: SS cells (sickle red blood cells); assay: RBC morphological antisickling study under hypoxic condition; format: cell-based, human; conditions: 2 mM compound, 1 hr under air, then 4% oxygen/96% nitrogen at 37° C. for 5 hrs; for inhibition at 2000 µM: Homo sapiens, Erythrocyte, read-out: Reduction (inhibition) of RBC sickling
Excerpt: as §1
KAUS-38 and KAUS-39 at 2 mM concentrations were tested for their abilities to prevent RBC sickling under hypoxic condition following previously reported assay^20. Briefly SS cells were suspended in Hemox buffer (TCS Scientific Corp, Southampton, Pa.), pH 7.4, that contained 10 mM glucose and 0.2% bovine serum albumin. The solution was incubated under air in the absence (control) or presence of […] 2 mM concentration of test compound at 37° C. for 1 hr. Following, the suspension was incubated under hypoxic condition (4% oxygen/96% nitrogen) at 37° C. for 5 hrs. The suspension was fixed with 2% glutaraldehyde solution without exposure to air and then subjected to microscopic morphological analysis as previously reported […]

[3] = molecular target: T2, cell free normal human hemoglobin (Homo sapiens, UniProt P68871+P69905); assay: Oxygen equilibrium curve (OEC) study with cell free hemoglobin, multipoint tonometry; format: biochemical; conditions: cell free normal human hemoglobin 1 mM; 1 mM or 2 mM compound
T2 construct: Hb was purified from discarded normal blood samples following published procedure and used for OEC study; from tissue; host or cells: discarded normal human blood samples
Excerpt: as §1
The ability of the KAUS compounds to left-shift the OEC (stabilize the R-state and/or destabilize the T-state) and increase the oxygen affinity of Hb in normal whole blood or free human hemoglobin was determined by multipoint tonometry as previously reported^20. […] Following incubation, the mixture was equilibrated in a tonometer with oxygen tensions of 6, 20 and 60 mmHg for 10 min each, and pO2 (mmHg) and sO2 (%) values were measured thereafter using ABL 700 series automated blood gas analyzer (Radiometer America, Inc., Westlake, Ohio). The measured values of pO2 and sO2 at each oxygen tension level were then subjected to a non-linear regression analysis using the program Scientist (Micromath, Salt Lake City, Utah) to calculate P50 and the Hill coefficient (N) values. […]

T1 sequence (P69905 2-142 limits assumed): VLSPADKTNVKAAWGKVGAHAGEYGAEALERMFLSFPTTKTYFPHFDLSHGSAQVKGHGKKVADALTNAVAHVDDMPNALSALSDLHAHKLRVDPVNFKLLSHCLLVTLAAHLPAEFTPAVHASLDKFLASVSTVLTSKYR
T1 sequence (P68871 2-147 limits assumed): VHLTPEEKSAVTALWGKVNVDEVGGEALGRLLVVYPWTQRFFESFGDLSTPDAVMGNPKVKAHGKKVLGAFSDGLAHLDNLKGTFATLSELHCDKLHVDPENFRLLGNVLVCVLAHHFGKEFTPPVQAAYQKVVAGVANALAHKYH
T2 sequence (P69905 2-142 limits assumed): as the sequence (P69905 2-142 limits assumed) above
T2 sequence (P68871 2-147 limits assumed): as the sequence (P68871 2-147 limits assumed) above

SMILES | Ratio of Cpd/Adduct (Adduct peak) [1] | Ratio of Cpd/Adduct (Compound peak) [1] | OEC effect (increase of Hb affinity for oxygen, left shift) (Hb in normal whole blood; 1 mM compound) [%] | OEC effect (increase of Hb affinity for oxygen, left shift) (Hb in normal whole blood; 2 mM compound) [%] | inhibition at 2000 µM [2] [%] | Effect on Hb affinity for oxygen in cell free Hb (in words) [3] | Reduction (inhibition) of RBC sickling [2] [%] | melting point | Reactivity with L-Cys (adduct share) [1] [%]
C=C(CC)C(=O)c1ccc(OCC(=O)O)c(Cl)c1Cl [Ethacrynic Acid, ethacrynic acid, reference compound] | 96.3 | 3.7 | 6.1 | 21.3 | 18 |  |  |  | 
O=C(O)CCCOc1ccc(C(=O)/C=C/c2ncc[nH]2)cc1Cl [KAUS-15, reference compound] |  |  | 1 | 7 |  | significantly more potent effect with cell free Hb than with whole blood | 6 |  | 
O=C(/C=C/c1ncc[nH]1)c1ccccc1 [KAUS-28, (E)-3-(1H-imidazol-2-yl)-1-phenylprop-2-en-1-one] | 6.9 | 93.1 |  |  |  |  |  |  | 
COc1cccc(C(=O)/C=C/c2ncc[nH]2)c1 [KAUS-29, (E)-3-(1H-imidazol-2-yl)-1-(3-methoxyphenyl)prop-2-en-1-one] | 2.1 | 97.9 | 8 | 14 |  |  |  |  | 
O=C(/C=C/c1ncc[nH]1)c1ccc(O)cc1 [KAUS-32, (E)-1-(4-hydroxyphenyl)-3-(1H-imidazol-2-yl)prop-2-en-1-one] |  |  |  |  |  |  |  | 250 to 253 °C | 
O=C(/C=C/c1ncc[nH]1)c1ccc(OC2CCCCO2)cc1 (stereo not shown) [KAUS-33, (E)-3-(1H-imidazol-2-yl)-1-(4-((tetrahydro-2H-pyran-2-yl)oxy)phenyl)prop-2-en-1-one] | 24.8 | 75.2 | 9.9 | 16.5 |  |  |  |  | 24.8
O=C(/C=C/c1ncc[nH]1)c1ccc(OCc2ccccc2)cc1 [KAUS-34, (E)-1-(4-(benzyloxy)phenyl)-3-(1H-imidazol-2-yl)prop-2-en-1-one] |  |  |  |  |  |  |  | > 250 °C (dec.) | 
COc1cc(C(=O)/C=C/c2ncc[nH]2)ccc1O [KAUS-36, (E)-1-(4-hydroxy-3-methoxyphenyl)-3-(1H-imidazol-2-yl)prop-2-en-1-one] |  |  |  |  |  |  |  | > 250 °C (dec.) | 
COc1ccc(C(=O)/C=C/c2ncc[nH]2)cc1 [KAUS-38, (E)-3-(1H-imidazol-2-yl)-1-(4-methoxyphenyl)prop-2-en-1-one] | 37.8 | 62.2 | 8 | 14 | 18 |  |  |  | 37.8
COc1ccc(C(=O)/C=C/c2ncc[nH]2)cc1OC [KAUS-39, (E)-1-(3,4-dimethoxyphenyl)-3-(1H-imidazol-2-yl)prop-2-en-1-one] | 27.2 | 72.8 |  |  | 5 |  |  | 222 to 223 °C | 27.2
